Data: US20120064125A1 (priority 2009, published 2012)

Key:
Format in all cases: cell-based, Staphylococcus aureus
[1] = tested on: USA300 strain LAC biofilm; assay: USA300 biofilm dispersal from a glass surface (flow cell, CLSM); details: AIP-I ~50 nM
Method: FIGS. 1A-B. USA300 biofilm dispersal from a glass surface. USA300 strain LAC with plasmid pALC2084 was inoculated into a once-through flow cell with a glass substratum and incubated for two days. AIP-I (˜50 nM) was added to the flow cell media and biofilm integrity was monitored for 20 hr. For each image depiction, a z series of images was obtained with CLSM and reconstructed with Volocity software, and each side of a grid square is 20 μm in the image reconstruction. (FIG. 1A) Wild-type LAC with pALC2084. (FIG. 1B) LAC ΔAgr:Tet mutant with pALC2084.
Biofilm Assays. […] For biofilm dispersal tests, AIP type I (AIP-I) was synthesized and quantified using an intein system (Malone et al., 2007), and biofilm dispersal tests were performed as previously described (Boles and Horswill, 2008). […] LAC biofilm integrity was monitored at 6 hr and 22 hr, and COMSTAT analysis was performed to quantify the biofilm properties.
USA300 has a functional biofilm dispersal pathway. […] Biofilm integrity was monitored using confocal laser scanning microscopy (CLSM), and as anticipated, the LAC biofilm appeared as a confluent layer ˜20 μm thick (FIG. 1A). […] In scanning the glass substratum, remaining live cells could not be detected, indicating the biomass completely dispersed from the surface.

[2] = tested on: USA300 strain LAC biofilm; assay: USA300 biofilm dispersal from a titanium surface (flow cell, CLSM); details: AIP-I ~50 nM
Method: FIGS. 6A-B. USA300 biofilm dispersal from a titanium surface. Biofilms of LAC with plasmid pCM12 were grown for two days in the modified flow cell chamber (FIG. 2) that contains titanium as a substratum. AIP-I was added to the flow cell media at ˜50 nM final concentration, and biofilm integrity was monitored for another 20 hr. Each image depiction is a reconstruction of a z series of CLSM images, and each side of a grid square is 20 μm. (FIG. 6A) Wild-type LAC with pCM12. (FIG. 6B) LAC ΔAgr::Tet mutant with pCM12.
Biofilm Assays. For biofilms grown on glass, flow cell biofilm growth, confocal scanning laser microscopy (CSLM), and computer image analysis were performed as previously described (Boles and Horswill, 2008). To monitor biofilm growth, LAC was transformed with GFP-expressing plasmid pALC2084 (Bateman et al., 2001), and the growth medium was supplemented with 1 μg/ml Cam and 20 ng/ml anhydrotetracycline for plasmid maintenance and induction of GFP expression. […] For biofilm dispersal tests, AIP type I (AIP-I) was synthesized and quantified using an intein system (Malone et al., 2007), and biofilm dispersal tests were performed as previously described (Boles and Horswill, 2008). […] LAC biofilm integrity was monitored at 6 hr and 22 hr, and COMSTAT analysis was performed to quantify the biofilm properties. […]

USA300 strain LAC = details: 48 hr titanium biofilm, AIP ~50 nM for 24 hr, effluent cells tested with rifampicin and levofloxacin
Method: In parallel, biomass was detached (white triangles, dashed-line error bars) from the coupons with AIP-I addition and collected from flow cell effluents. The detached biomass was treated with identical rifampicin/levofloxacin concentrations and surviving CFU's determined.
Antibiotic susceptibility. […] To determine antibiotic resistance of dispersed biofilms, AIP was added (˜50 nM) to the media reservoir after 48 hr growth, and the biofilm effluent was collected on ice for 24 hr. Cell concentration was adjusted to the equivalent of one coupon of biomass, or ˜1×10^8 CFU. Cells were treated as described above with the exception that cells were pelleted by centrifugation at 13,000 RPM and then resuspended in 1 mL PBS before sonication.
To test antibiotic susceptibility of dispersed cells, LAC biofilms were grown for 48 hr on titanium, exposed to AIP (˜50 nM) for 24 hr, and detached cells were collected from the effluent.

[3] = LAC ΔAgr::Tet mutant (Agr inactivated), 20 hr

## YSTCDFIM (thiolactone bridge; Synechocystis PCC6803) [AIP-I, made with an intein system]
[1]; [3]
  biofilm integrity after signal addition: no effect on the biofilm integrity
[1]; wild-type LAC, 48 hr biofilm, 20 hr after addition
  biofilm integrity (biomass) after signal addition: complete loss of biomass
[2]; [3]
  biofilm response to AIP-I: did not respond to AIP-I treatment
[2]; wild-type LAC, two day biofilm, 20 hr post addition
  biofilm dispersal (biomass): complete dispersal of the biomass
USA300 strain LAC
  antibiotic susceptibility of cells after AIP-mediated dispersal: significantly more antibiotic susceptible
